Assay results as given in patent publication US9707229B2, “Compositions and methods for treating an infection” (CMPD LICENSING, LLC, priority 2015, dated 2017).
Like-named read-outs stand apart in the source and are kept apart here.

Columns and labels:
Histoplasma capsulatum = format: cell-based; conditions: expected efficacy
Coccidioides immitis = format: cell-based; conditions: expected efficacy
Cryptococcus neoformans = assay: Expected efficacy of antifungal agents; format: cell-based
Candida species = assay: Expected efficacy of antifungal agents; format: cell-based
Aspergillus flavus = assay: Expected efficacy of antifungal agents; format: cell-based
Aspergillus fumigatus = assay: Expected efficacy of antifungal agents; format: cell-based
Blastomyces dermatitidis = assay: Expected efficacy of antifungal agents; format: cell-based
[1] = test system: Staphylococcus aureus (MSSA); assay: Expected efficacy of antibiotic agents; format: cell-based; conditions: Gram: pos
[2] = test system: Viridans group streptococci; assay: Expected efficacy of antibiotic agents; format: cell-based; conditions: Gram: pos
[3] = test system: Methicillin resistant staph aureus (MRSA); assay: Expected efficacy of antibiotic agents; format: cell-based; conditions: Gram: pos
Enterobacter cloacae = assay: Expected efficacy of antibiotic agents; format: cell-based; conditions: Gram: neg
Haemophilus influenzae = assay: Expected efficacy of antibiotic agents; format: cell-based; conditions: Gram: neg
Moraxella catarrhalis = assay: Expected efficacy of antibiotic agents; format: cell-based; conditions: Gram: neg
Bartonella bacilliformis = assay: Expected efficacy of antibiotic agents; format: cell-based; conditions: Gram: neg
Morganella morganii = assay: Expected efficacy of antibiotic agents; format: cell-based; conditions: Gram: neg
Shigella dysenteriae = assay: Expected efficacy of antibiotic agents; format: cell-based; conditions: Gram: neg
Legionella pneumophila = format: cell-based
Acinetobacter baumannii = assay: Expected efficacy of antibiotic agents; format: cell-based; conditions: Gram: neg
Acinetobacter lwoffii = assay: Expected efficacy of antibiotic agents; format: cell-based; conditions: Gram: neg
Campylobacter jejuni = assay: Expected efficacy of antibiotic agents; format: cell-based; conditions: Gram: neg
Streptococcus agalactiae = assay: Expected efficacy of antibiotic agents; format: cell-based; conditions: Gram: pos
Escherichia coli = assay: Expected efficacy of antibiotic agents; format: cell-based; conditions: Gram: neg
Citrobacter diversus = assay: Expected efficacy of antibiotic agents; format: cell-based; conditions: Gram: neg
Enterococcus faecalis = assay: Expected efficacy of antibiotic agents; format: cell-based; conditions: Gram: pos
Proteus mirabilis = assay: Expected efficacy of antibiotic agents; format: cell-based; conditions: Gram: neg
Yersinia pestis = format: cell-based
Chlamydia pneumoniae = assay: Expected efficacy of antibiotic agents; format: cell-based; conditions: Gram: n/a
Streptococcus pyogenes = assay: Expected efficacy of antibiotic agents; format: cell-based; conditions: Gram: pos
Enterobacter aerogenes = assay: Expected efficacy of antibiotic agents; format: cell-based; conditions: Gram: neg
[4] = test system: Klebsiella (Calymmatobacterium) granulomatis; assay: Expected efficacy of antibiotic agents; format: cell-based; conditions: Gram: neg
Francisella tularensis = format: cell-based
Shigella boydii = assay: Expected efficacy of antibiotic agents; format: cell-based; conditions: Gram: neg
[5] = test system: Corynebacterium urealyticum; assay: Expected efficacy of antibiotic agents; format: cell-based; conditions: Gram: pos
Providencia rettgeri = assay: Expected efficacy of antibiotic agents; format: cell-based; conditions: Gram: neg
Enterobacter sakazakii = assay: Expected efficacy of antibiotic agents; format: cell-based; conditions: Gram: neg
Serratia marcescens = assay: Expected efficacy of antibiotic agents; format: cell-based; conditions: Gram: neg
Pseudomonas aeruginosa = assay: Expected efficacy of antibiotic agents; format: cell-based; conditions: Gram: neg
Providencia stuartii = assay: Expected efficacy of antibiotic agents; format: cell-based; conditions: Gram: neg
Diphtheroids = assay: Expected efficacy of antibiotic agents; format: cell-based; conditions: Gram: pos
Citrobacter freundii = assay: Expected efficacy of antibiotic agents; format: cell-based; conditions: Gram: neg
Shigella sonnei = assay: Expected efficacy of antibiotic agents; format: cell-based; conditions: Gram: neg
Rickettsiae = format: cell-based
Shigella flexneri = assay: Expected efficacy of antibiotic agents; format: cell-based; conditions: Gram: neg
Chlamydia trachomatis = assay: Expected efficacy of antibiotic agents; format: cell-based; conditions: Gram: n/a
Klebsiella oxytoca = assay: Expected efficacy of antibiotic agents; format: cell-based; conditions: Gram: neg
[6] = test system: Haemophilus parainfluenzae; assay: Expected efficacy of antibiotic agents; format: cell-based; conditions: Gram: neg
Streptococcus pneumoniae = assay: Expected efficacy of antibiotic agents; format: cell-based; conditions: Gram: pos
Bacteroides fragilis = assay: Expected efficacy of antibiotic agents; format: cell-based; conditions: Gram: anaer
Neisseria meningitidis = assay: Expected efficacy of antibiotic agents; format: cell-based; conditions: Gram: neg
Clostridium perfringens = format: cell-based
[7] = test system: Staphylococcus epidermidis; assay: Expected efficacy of antibiotic agents; format: cell-based; conditions: Gram: pos
[8] = test system: Acinetobacter calcoaceticus; assay: Expected efficacy of antibiotic agents; format: cell-based; conditions: Gram: neg
Pseudomonas fluorescens = assay: Expected efficacy of antibiotic agents; format: cell-based; conditions: Gram: neg
Salmonella typhi = assay: Expected efficacy of antibiotic agents; format: cell-based; conditions: Gram: neg
Proteus vulgaris = assay: Expected efficacy of antibiotic agents; format: cell-based; conditions: Gram: neg
Peptostreptococcus = assay: Expected efficacy of antibiotic agents; format: cell-based; conditions: Gram: pos
Brucella species = format: cell-based
Neisseria gonorrhoeae = assay: Expected efficacy of antibiotic agents; format: cell-based; conditions: Gram: neg
Enterococcus faecium = assay: Expected efficacy of antibiotic agents; format: cell-based; conditions: Gram: pos
Bordetella pertussis = assay: Expected efficacy of antibiotic agents; format: cell-based; conditions: Gram: neg
Clostridium difficile = assay: Expected efficacy of antibiotic agents; format: cell-based; conditions: Gram: anaer
Mycoplasma pneumoniae = assay: Expected efficacy of antibiotic agents; format: cell-based; conditions: Gram: n/a
Haemophilus ducreyi = assay: Expected efficacy of antibiotic agents; format: cell-based; conditions: Gram: neg
Chlamydia psittaci = format: cell-based
Corynebacterium jeikeium = assay: Expected efficacy of antibiotic agents; format: cell-based; conditions: Gram: pos
Vibrio cholerae = assay: Expected efficacy of antibiotic agents; format: cell-based; conditions: Gram: neg
Klebsiella pneumoniae = assay: Expected efficacy of antibiotic agents; format: cell-based; conditions: Gram: neg
[9] = test system: gram-positive staphylococci and streptococci; conditions: general description, no test given; cited from earlier work

OC(Cn1cncn1)(Cn1cncn1)c1ccc(F)cc1F [Fluconazole]
efficacy against Histoplasma capsulatum (Histoplasma capsulatum): yes
efficacy against Coccidioides immitis (Coccidioides immitis): yes
efficacy against Cryptococcus neoformans (Cryptococcus neoformans): yes
efficacy against Candida species (Candida species): yes
efficacy against Aspergillus flavus (Aspergillus flavus): yes
efficacy against Aspergillus fumigatus (Aspergillus fumigatus): yes
efficacy against Blastomyces dermatitidis (Blastomyces dermatitidis): yes

CN[C@H](CC(C)C)C(=O)N[C@H]1C(=O)N[C@@H](CC(N)=O)C(=O)N[C@H]2C(=O)N[C@H]3C(=O)N[C@H](C(=O)N[C@H](C(=O)O)c4cc(O)cc(O)c4-c4cc3ccc4O)[C@H](O)c3ccc(c(Cl)c3)Oc3cc2cc(c3O[C@@H]2O[C@H](CO)[C@@H](O)[C@H](O)[C@H]2O[C@H]2C[C@](C)(N)[C@H](O)[C@H](C)O2)Oc2ccc(cc2Cl)[C@H]1O [Vancomycin]
efficacy against Staphylococcus aureus (MSSA) [1]: yes
efficacy against Viridans group streptococci [2]: yes
efficacy against Methicillin resistant staph aureus (MRSA) [3]: yes
efficacy against Enterobacter cloacae (Enterobacter cloacae): no
efficacy against Haemophilus influenzae (Haemophilus influenzae): no
efficacy against Moraxella catarrhalis (Moraxella catarrhalis): no
efficacy against Bartonella bacilliformis (Bartonella bacilliformis): no
efficacy against Morganella morganii (Morganella morganii): no
efficacy against Shigella dysenteriae (Shigella dysenteriae): no
efficacy against Legionella pneumophila (Legionella pneumophila): no
efficacy against Acinetobacter baumannii (Acinetobacter baumannii): no
efficacy against Acinetobacter lwoffii (Acinetobacter lwoffii): no
efficacy against Campylobacter jejuni (Campylobacter jejuni): no
efficacy against Streptococcus agalactiae (Streptococcus agalactiae): yes
efficacy against Escherichia coli (Escherichia coli): no
efficacy against Citrobacter diversus (Citrobacter diversus): no
efficacy against Enterococcus faecalis (Enterococcus faecalis): yes
efficacy against Proteus mirabilis (Proteus mirabilis): no
efficacy against Yersinia pestis (Yersinia pestis): no
efficacy against Chlamydia pneumoniae (Chlamydia pneumoniae): no
efficacy against Streptococcus pyogenes (Streptococcus pyogenes): yes
efficacy against Enterobacter aerogenes (Enterobacter aerogenes): no
efficacy against Klebsiella (Calymmatobacterium) granulomatis [4]: no
efficacy against Francisella tularensis (Francisella tularensis): no
efficacy against Shigella boydii (Shigella boydii): no
efficacy against Corynebacterium urealyticum [5]: yes
efficacy against Providencia rettgeri (Providencia rettgeri): no
efficacy against Enterobacter sakazakii (Enterobacter sakazakii): no
efficacy against Serratia marcescens (Serratia marcescens): no
efficacy against Pseudomonas aeruginosa (Pseudomonas aeruginosa): no
efficacy against Providencia stuartii (Providencia stuartii): no
efficacy against Diphtheroids (Diphtheroids): yes
efficacy against Citrobacter freundii (Citrobacter freundii): no
efficacy against Shigella sonnei (Shigella sonnei): no
efficacy against Rickettsiae (Rickettsiae): no
efficacy against Shigella flexneri (Shigella flexneri): no
efficacy against Chlamydia trachomatis (Chlamydia trachomatis): no
efficacy against Klebsiella oxytoca (Klebsiella oxytoca): no
efficacy against Haemophilus parainfluenzae [6]: no
efficacy against Streptococcus pneumoniae (Streptococcus pneumoniae): yes
efficacy against Bacteroides fragilis (Bacteroides fragilis): no
efficacy against Neisseria meningitidis (Neisseria meningitidis): no
efficacy against Clostridium perfringens (Clostridium perfringens): no
efficacy against Staphylococcus epidermidis [7]: yes
efficacy against Acinetobacter calcoaceticus [8]: no
efficacy against Pseudomonas fluorescens (Pseudomonas fluorescens): no
efficacy against Salmonella typhi (Salmonella typhi): no
efficacy against Proteus vulgaris (Proteus vulgaris): no
efficacy against Peptostreptococcus (Peptostreptococcus): yes
efficacy against Brucella species (Brucella species): no
efficacy against Neisseria gonorrhoeae (Neisseria gonorrhoeae): no
efficacy against Enterococcus faecium (Enterococcus faecium): yes, not VRE
efficacy against Bordetella pertussis (Bordetella pertussis): no
efficacy against Clostridium difficile (Clostridium difficile): yes
efficacy against Mycoplasma pneumoniae (Mycoplasma pneumoniae): no
efficacy against Haemophilus ducreyi (Haemophilus ducreyi): no
efficacy against Chlamydia psittaci (Chlamydia psittaci): no
efficacy against Corynebacterium jeikeium (Corynebacterium jeikeium): yes
efficacy against Vibrio cholerae (Vibrio cholerae): no
efficacy against Klebsiella pneumoniae (Klebsiella pneumoniae): no

C/C(=C\C(=O)OCCCCCCCCC(=O)O)C[C@@H]1OC[C@H](C[C@@H]2O[C@H]2[C@@H](C)[C@H](C)O)[C@@H](O)[C@H]1O [Bactroban, Mupirocin]
efficacy against Staphylococcus aureus (MSSA) [1]: yes
activity against gram-positive staphylococci and streptococci [9]: excellent activity
efficacy against Methicillin resistant staph aureus (MRSA) [3]: yes
efficacy against Enterobacter cloacae (Enterobacter cloacae): no
efficacy against Haemophilus influenzae (Haemophilus influenzae): no
efficacy against Moraxella catarrhalis (Moraxella catarrhalis): no
efficacy against Bartonella bacilliformis (Bartonella bacilliformis): no
efficacy against Morganella morganii (Morganella morganii): no
efficacy against Shigella dysenteriae (Shigella dysenteriae): no
efficacy against Legionella pneumophila (Legionella pneumophila; expected efficacy, Gram: neg): no
efficacy against Acinetobacter baumannii (Acinetobacter baumannii): no
efficacy against Acinetobacter lwoffii (Acinetobacter lwoffii): no
efficacy against Campylobacter jejuni (Campylobacter jejuni): no
efficacy against Escherichia coli (Escherichia coli): no
efficacy against Citrobacter diversus (Citrobacter diversus): no
efficacy against Proteus mirabilis (Proteus mirabilis): no
efficacy against Yersinia pestis (Yersinia pestis; expected efficacy, Gram: neg): no
efficacy against Streptococcus pyogenes (Streptococcus pyogenes): yes
efficacy against Enterobacter aerogenes (Enterobacter aerogenes): no
efficacy against Klebsiella (Calymmatobacterium) granulomatis [4]: no
efficacy against Francisella tularensis (Francisella tularensis; expected efficacy, Gram: neg): no
efficacy against Shigella boydii (Shigella boydii): no
efficacy against Corynebacterium urealyticum [5]: no
efficacy against Providencia rettgeri (Providencia rettgeri): no
efficacy against Enterobacter sakazakii (Enterobacter sakazakii): no
efficacy against Serratia marcescens (Serratia marcescens): no
efficacy against Pseudomonas aeruginosa (Pseudomonas aeruginosa): no
efficacy against Providencia stuartii (Providencia stuartii): no
efficacy against Citrobacter freundii (Citrobacter freundii): no
efficacy against Shigella sonnei (Shigella sonnei): no
efficacy against Rickettsiae (Rickettsiae; expected efficacy, Gram: neg): no
efficacy against Shigella flexneri (Shigella flexneri): no
efficacy against Klebsiella oxytoca (Klebsiella oxytoca): no
efficacy against Neisseria meningitidis (Neisseria meningitidis): no
efficacy against Clostridium perfringens (Clostridium perfringens; expected efficacy, Gram: anaer): no
efficacy against Acinetobacter calcoaceticus [8]: no
efficacy against Pseudomonas fluorescens (Pseudomonas fluorescens): no
efficacy against Salmonella typhi (Salmonella typhi): no
efficacy against Proteus vulgaris (Proteus vulgaris): no
efficacy against Brucella species (Brucella species; expected efficacy, Gram: neg): no
efficacy against Neisseria gonorrhoeae (Neisseria gonorrhoeae): no
efficacy against Bordetella pertussis (Bordetella pertussis): no
efficacy against Haemophilus ducreyi (Haemophilus ducreyi): no
efficacy against Corynebacterium jeikeium (Corynebacterium jeikeium): no
efficacy against Vibrio cholerae (Vibrio cholerae): no
efficacy against Klebsiella pneumoniae (Klebsiella pneumoniae): no
